Patent US11103525B2, “Idoxuridine and its analogs as neuroprotectans for the treatment of parkinsonism” (priority 2017, dated 2021)
pEC50: −log10 of the molar value.

Tests used:
primary cortical neurons = test: Cytoprotection against NMDA excitotoxicity (propidium iodide staining); format: cell-based, rat; conditions: 25 μM pretreatment 72 h or 48 h, NMDA 200 μM 30 min
Experimental: FIG. 7: Cytoprotection of Idoxuridine against excitotoxicity of NMDA. Mature primary neurons were pretreated with Idoxuridine (25 μM) or DMSO (ctrl cells) for 72 h or 48 h and subsequently exposed to NMDA (200 μM) for 30 min. Cell viability was assessed by propidium iodide (PI) staining. Both control and treated cells were incubated for 30 min with 6 μM PI which stains nuclei of dead cells. After extensive washing with Tyrode's buffer, samples were fixed and stained with DAPI to visualize all cell nuclei. PI positive cells were counted at several regions on coverslips and expressed as percentage of total cells visualized with DAPI stain. […] Data are expressed as means+/−SD and analyzed by one-way ANOVA with Dunnett's posthoc test. *p<0.001
Primary cortical neurons: Primary cortical neurons were prepared from E18 rat embryos. Cortices were isolated, cleared from meninges and dissociated after incubation in HBSS (Ca^2+ and Mg^2+-free) with 0.25% trypsin for 20 min at 37° C. […]
Mature primary neurons were pretreated with Idoxuridine (25 μM) or DMSO (ctrl cells) for 72 h or 48 h and subsequently exposed to NMDA (200 μM) for 30 min. Cell viability was assessed by propidium iodide (PI) staining. […] PI positive cells were counted at several regions on coverslips and expressed as percentage of total cells visualized with DAPI stain. […]

GPR37-tGFP = GPR37-tGFP translocation assay; format: cell-based, mouse; conditions: 72 h
Experimental: FIG. 2. Schematic representation of the rationale and the basic steps of GPR37-translocation assay. A. GPR37 is prone to misfolding and aggregation, which, in metabolically-active cells, are followed by degradation and results in low levels of functional receptor in the plasma membrane. The primary targets of the screening assay are compounds that can directly or indirectly facilitate maturation and trafficking of GPR37 to the plasma membrane. B. N2a cells stably expressing GPR37-tGFP are seeded in poly-D-Lysine coated 384 well plates at density 5000 cells/well. 24 h later cells are treated with compounds, including positive and negative controls, and incubated for 72 h. Then cells are fixed with 4% PFA and additionally stained with Hoechst 33342 (nuclei) and HCS CellMask™ red (cell body) to enable segmentation of the plasma membrane. Acquisition of fluorescence images is done using ImageXpress high content screening system (Molecular Devices). Quantification of GPR37-tGFP levels in the plasma membrane is done using CellProfiler software. FIG. 3. Schematic representation of Image analysis pipeline and final outcome data. Segmentation of the plasma membrane is performed in five main steps: 1) identification of nuclei (primary objects) using nuclear stain, 2) determination of cell borders using primary objects as seeds and growing these objects in respect of tGFP and HCS CellMask™ fluorescence intensity (secondary objects), 3) shrinking and expending secondary objects, 4) subtraction of shrunken cells from expended cells which results in membrane segmentation (tertiary objects), 5) tGFP fluorescence intensity is calculated within tertiary objects. Z′ factor is a quality measure of an assay which describes how well separated positive and negative controls are. Assays having Z′ factors above 0.5 are considered good assays. N2a cells stably expressing GPR37-tGFP were seeded in 384 BDFalcon BioCoat Poly-D-Lysine coated plates at a density of 5000 cells/well, and 50 μL incubation volume of maintenance medium. Cells were incubated at 37° C., 5% CO2 using humidity chamber. 24 h later, the cells were treated with 10 μL of compounds of desired concentration, including positive (2 mM dibutyryl-cAMP+0.5 mM 4-phenylbutyrate) and negative controls (0.1% DMSO), and incubated for 72 h. Cells were fixed with 4% PFA by adding 20 μL of 16% PFA directly to cell medium, incubating for 20 min and washing with PBS-Tween20 (0.05%). Directly after fixation cells were stained for nuclei with Hoechst 33342 (0.01 mg/mL) and for cell bodies with HCS CellMask™ Red stain (Thermo Fisher Scientific Inc.) (0.001 mg/mL) by incubating with the dyes for 30 min in PBS-Tween20 (0.05%) followed by washing with PBS. All the additional steps, including cell seeding were performed using Multidrop Combi dispenser (Thermo Scientific) and washing steps were done by means of HydroSpeed™ plate washer (Tecan). The images were captured using ImageXpress Micro XLS Widefield High-Content Analysis System (Molecular Devices, LLC) in 3 fluorescent channels (ImageXpress filters are listed, followed by excitation/emission in nm): DAPI (387/447), FITC (482/536) and TexasRed (562/624). Binning 2 was applied during the acquisition and digital confocal option was used for FITC and TexasRed filters. Typically, 5 images were taken per well at magnification 20× and stored as 16 bit, gray scale tif files along with metadata in Oracle database, for further analysis. Quantification of GPR37-tGFP levels in the plasma membrane was done using CellProfiler™ software. CellProfiler™ is an open-source cell image analysis software available at www.cellprofiler.org. An image analysis pipeline used for membrane segmentation consisted of 5 main steps (FIG. 3): 1) segmentation of nuclei (primary objects); 2) segmentation of cell bodies (secondary objects); 3) shrinking and expending cell bodies; 4) subtraction of shrank cells from expanded cells (tertiary objects—membranes); 5) calculating tGFP fluorescence in the membranes. […]

WT cells = test: Cytoprotection against H2O2, WT cells; format: cell-based, mouse; conditions: in-well H2O2 0.00025%
Description: FIG. 10: Cytoprotection of Idoxuridine against […]. H2O2 reduces cell viability by increasing oxidative stress. This effect was counteracted by idoxuridine in GPR37-tGFP overexpressing cells (A) and WT (B) cells. […] In-well H2O2 concentration used was 0.00025%. […]

pEC50 (GPR37-tGFP; dose response, read-out: concentration giving 50% activity of positive control (GPR37-tGFP level at the plasma membrane)): ~6.00
SMILES: O=c1[nH]c(=O)n([C@H]2C[C@H](O)[C@@H](CO)O2)cc1I [Idoxuridine, 2′-deoxy-5-iodouridine]
effect on excitotoxicity induced by NMDA (PI positive cells) (primary cortical neurons): significantly counteracted | concentration up to which GPR37-tGFP level at the plasma membrane increases in a dose response manner (GPR37-tGFP; dose response): around 5 μM | GPR37-tGFP level in the plasma membrane, activity of positive control (GPR37-tGFP; primary screen, 10 μM, positive control (dibutyryl-cAMP + 4-phenylbutyrate) = 100%): about 100% | effect on H2O2-induced reduction of cell viability (WT cells): counteracted
